Test results reported in PubChem BioAssay AID308 (DTP/NCI, 2004).
Toxic doses and inconclusive results are not listed. How the source made its calls: active means survival T/C of 150% or more; inactive means T/C below 125% in these data.

Test system: BDF1 mice, L1210 6-MP/6-TG resistant leukemia ip, survival T/C
Test: NCI In Vivo Anticancer Drug Screen. Data for tumor model L1210 Leukemia resistant to 6-MP and 6-Thioguanine; NSC 755, NSC 752 (intraperitoneal) in B6D2F1 (BDF1) mice
Conditions: endpoint: mean survival time, higher = longer survival
Protocol: The antitumor activity of compounds was measured in mice bearing transplantable tumors. Survival or tumor size were measured and the results are expressed as the measurement made in the treated group (T) divided by the measurement made in the vehicle treated control group (C). The tumor model used in this assay is L1210 Leukemia resistant to 6-MP and 6-Thioguanine; NSC 755, NSC 752 (intraperitoneal) in B6D2F1 (BDF1) mice

[1] = dose: 7.5 mg/kg/injection, schedule: Q01DX Z (ip), vehicle: carboxymethylcellulose (CMC)
[2] = dose: 7.5 mg/kg/injection, schedule: Q01DX Z (ip), vehicle: saline
[3] = dose: 15.0 mg/kg/injection, schedule: Q01DX Z (ip), vehicle: saline
[4] = dose: 25.0 mg/kg/injection, schedule: Q01DX Z (ip), vehicle: carboxymethylcellulose (CMC)
[5] = dose: 50.0 mg/kg/injection, schedule: Q01DX Z (ip), vehicle: carboxymethylcellulose (CMC)

Measured: T/C

C[C@@H]1C[C@@H]([C@H](O)CC2CC(=O)NC(=O)C2)C(=O)[C@@H](C)C1
inactive: dose: 0.93 mg/kg/injection, schedule: Q01DX Z (ip), vehicle: carboxymethylcellulose (CMC) 101 % of control | dose: 1.87 mg/kg/injection, schedule: Q01DX Z (ip), vehicle: carboxymethylcellulose (CMC) 101 % of control | dose: 3.75 mg/kg/injection, schedule: Q01DX Z (ip), vehicle: carboxymethylcellulose (CMC) 100 % of control | [1] 101 % of control | [2] 116 % of control | [3] 114 % of control | dose: 30.0 mg/kg/injection, schedule: Q01DX Z (ip), vehicle: saline 112 % of control | dose: 60.0 mg/kg/injection, schedule: Q01DX Z (ip), vehicle: saline 92 % of control

Cn1cnc([N+](=O)[O-])c1Sc1nc(N)nc2nc[nH]c12
inactive: [1] 95 % of control | dose: 10.0 mg/kg/injection, schedule: Q01DX Z (ip), vehicle: carboxymethylcellulose (CMC) 92 % of control | dose: 15.0 mg/kg/injection, schedule: Q01DX Z (ip), vehicle: carboxymethylcellulose (CMC) 90 % of control | dose: 20.0 mg/kg/injection, schedule: Q01DX Z (ip), vehicle: carboxymethylcellulose (CMC) 89 % of control

CC(C)Cn1cnc2c(Sc3c([N+](=O)[O-])ncn3C)nc(N)nc21
inactive: dose: 1.0 mg/kg/injection, schedule: Q01DX015 (ip), vehicle: other 94 % of control | dose: 2.0 mg/kg/injection, schedule: Q01DX015 (ip), vehicle: other 92 % of control | dose: 8.0 mg/kg/injection, schedule: Q01DX015 (ip), vehicle: other 95 % of control | dose: 12.5 mg/kg/injection, schedule: Q01DX015 (ip), vehicle: other 100 % of control | dose: 25.0 mg/kg/injection, schedule: Q01DX015 (ip), vehicle: other 97 % of control | dose: 50.0 mg/kg/injection, schedule: Q01DX015 (ip), vehicle: other 90 % of control

CC(CCC(C)OS(C)(=O)=O)OS(C)(=O)=O (stereo not drawn)
inactive: [4] 112 % of control | dose: 37.5 mg/kg/injection, schedule: Q01DX Z (ip), vehicle: carboxymethylcellulose (CMC) 116 % of control | [5] 118 % of control | dose: 75.0 mg/kg/injection, schedule: Q01DX Z (ip), vehicle: carboxymethylcellulose (CMC) 98 % of control

OCC1OC(n2cnc3c(=S)nc[nH]c32)CC1O (stereo not drawn)
inactive: dose: 62.0 mg/kg/injection, schedule: Q01DX015 (ip), vehicle: carboxymethylcellulose (CMC) 98 % of control | dose: 125.0 mg/kg/injection, schedule: Q01DX015 (ip), vehicle: carboxymethylcellulose (CMC) 96 % of control | dose: 250.0 mg/kg/injection, schedule: Q01DX015 (ip), vehicle: carboxymethylcellulose (CMC) 93 % of control

CSc1ncc(Br)c(Sc2nc(N)nc3nc[nH]c23)n1
inactive: dose: 3.12 mg/kg/injection, schedule: Q01DX Z (ip), vehicle: carboxymethylcellulose (CMC) 100 % of control | dose: 6.25 mg/kg/injection, schedule: Q01DX Z (ip), vehicle: carboxymethylcellulose (CMC) 95 % of control | dose: 12.5 mg/kg/injection, schedule: Q01DX Z (ip), vehicle: carboxymethylcellulose (CMC) 88 % of control

Cn1c(O)c(N=NC(N)=S)c2ccccc21
inactive: [4] 100 % of control | [5] 105 % of control | dose: 100.0 mg/kg/injection, schedule: Q01DX Z (ip), vehicle: carboxymethylcellulose (CMC) 104 % of control | dose: 200.0 mg/kg/injection, schedule: Q01DX Z (ip), vehicle: carboxymethylcellulose (CMC) 88 % of control

CN(C)c1ccc(/C=C/c2ccnc3ccccc23)cc1
inactive: dose: 1.87 mg/kg/injection, schedule: Q01DX Z (ip), vehicle: saline 115 % of control | dose: 3.75 mg/kg/injection, schedule: Q01DX Z (ip), vehicle: saline 109 % of control | [2] 115 % of control | [3] 110 % of control | dose: 25.0 mg/kg/injection, schedule: Q01DX Z (ip), vehicle: saline 102 % of control | dose: 50.0 mg/kg/injection, schedule: Q01DX Z (ip), vehicle: saline 90 % of control
